Results from patent US20230159453A1 (COCRYSTAL PHARMA, INC., priority 2020, published 2023).

Target: SARS2 protease (Severe acute respiratory syndrome coronavirus 2, UniProt P0DTD1)
Assay: SARS-CoV-2 protease inhibition assay (SARS2 FRET protease assay)
Format: biochemical
Conditions: SARS-CoV-2 protease 25 nM, FRET, peptide substrate 1.3 μM, 30 minutes at 30° C., compounds 20 μM to 1.0 nM; read-out: IC50

Compound	IC50
CC(C)(C)C(=O)N1CCC2(CC1)CC(CC(C=O)NC(=O)[C@H](CC1CCCCC1)NC(=O)OCc1cccc(Cl)c1)C(=O)N2 (stereo partly drawn) [Compound C212, 3-Chlorobenzyl ((2S)-3-cyclohexyl-1-oxo-1-((1-oxo-3-(2-oxo-8-pivaloyl-1,8-diazaspiro[4.5]decan-3-yl)propan-2-yl)amino)propan-2-yl)carbamate]	194 nM
CC(C)C[C@H](NC(=O)OC(Cc1ccccc1)C(C)C)C(=O)N[C@H](C=O)C[C@@H]1CCNC1=O (stereo partly drawn) [Compound C230, 3-Methyl-1-phenylbutan-2-yl ((S)-4-methyl-1-oxo-1-(((S)-1-oxo-3-((S)-2-oxopyrrolidin-3-yl)propan-2-yl)amino)pentan-2-yl)carbamate]	70 nM
CC(C)C[C@H](NC(=O)OC(c1ccccc1)C(C)(C)c1cccc(Cl)c1)C(=O)N[C@@H](C[C@@H]1CCNC1=O)C(=O)C(=O)N1CCN(C(=O)OC(C)(C)C)CC1 (some centres unmarked) [Compound C261]	17000 nM
CCOP(=O)(OCC)C(O)C(CC1CC2(CCCCC2)NC1=O)NC(=O)C(CC(C)C)NC(=O)OCc1cccc(Cl)c1 (stereo in doubt) [Compound C85, 3-Chlorobenzyl ((2R)-1-((1-(diethoxyphosphoryl)-1-hydroxy-3-(2-oxo-1-azaspiro[4.5]decan-3-yl)propan-2-yl)amino)-4-methyl-1-oxopentan-2-yl)carbamate]	17800 nM
CC(C)C[C@H](NC(=O)OC1(Cc2cccc(OCc3ccccc3)c2)CC1)C(=O)N[C@H](C=O)C[C@@H]1CCNC1=O [Compound C60, 1-(3-(Benzyloxy)benzyl)cyclopropyl ((S)-4-methyl-1-oxo-1-(((S)-1-oxo-3-((S)-2-oxopyrrolidin-3-yl)propan-2-yl)amino)pentan-2-yl)carbamate]	600 nM
O=C(N[C@@H](CC1CCCCC1)C(=O)N[C@@H](C[C@@H]1CCNC1=O)C(=O)C(=O)NC1CC1)OC(c1cccc(Cl)c1)C1(c2cccc(Cl)c2)CC1 (some centres unmarked) [Compound C213]	257 nM
CC(C)C[C@H](NC(=O)OC(Cc1ccccc1)c1ccccc1)C(=O)N[C@@H](C[C@@H]1CCNC1=O)C(=O)C(=O)N1CCN(C(=O)OC(C)(C)C)CC1 (some centres unmarked) [Compound C280]	> 20000 nM
CN(Cc1cccc(Cl)c1)C(=O)N[C@@H](CC1CCCCC1)C(=O)N[C@H](C=O)CCC(=O)N1CCOc2ccccc2C1 [Compound C35, (S)-2-(3-(3-Chlorobenzyl)-3-methylureido)-3-cyclohexyl-N—((S)-5-(2,3-dihydrobenzo[f][1,4]oxazepin-4(5H)-yl)-1,5-dioxopentan-2-yl)propanamide]	18900 nM
CC(C)(c1cccc(Cl)c1)C(OC(=O)N[C@@H](CC1CCCCC1)C(=O)N[C@@H](C[C@@H]1CCNC1=O)C(=O)C(=O)NC1CC1)c1ccccc1 (stereo partly drawn) [Compound C148, 2-(3-Chlorophenyl)-2-methyl-1-phenylpropyl ((S)-3-cyclohexyl-1-(((S)-4-(cyclopropylamino)-3,4-dioxo-1-((S)-2-oxopyrrolidin-3-yl)butan-2-yl)amino)-1-oxopropan-2-yl)carbamate]	973 nM
COc1cccc(CC2(OC(=O)N[C@@H](CC(C)C)C(=O)N[C@@H](C[C@@H]3CCNC3=O)C(O)S(=O)(=O)O)CC2)c1 (stereo partly drawn) [Compound C49, (2S)-1-Hydroxy-2-((S)-2-(((1-(3-methoxybenzyl)cyclopropoxy)carbonyl)amino)-4-methylpentanamido)-3-((S)-2-oxopyrrolidin-3-yl)propane-1-sulfonate]	266 nM
CC(C[C@@H](C=O)NC(=O)[C@H](CC1CCCCC1)NC(=O)OCc1cccc(Cl)c1)C(=O)N1CCOc2ccccc2C1 (stereo partly drawn) [Compound C29, 3-Chlorobenzyl ((2S)-3-cyclohexyl-1-(((2S)-5-(2,3-dihydrobenzo[f][1,4]oxazepin-4(5H)-yl)-4-methyl-1,5-dioxopentan-2-yl)amino)-1-oxopropan-2-yl)carbamate]	> 200000 nM
O=C[C@H](C[C@@H]1CCNC1=O)NC(=O)[C@H](CC1CCCCC1)NC(=O)O[C@@H]1CCC[C@H]1Cc1cccc(Cl)c1 [Compound C262]	20 nM
CC(C)C[C@H](NC(=O)O[C@@H](c1ccccc1)C(C)(C)c1cccc(Cl)c1)C(=O)N[C@H](C=O)C[C@@H]1CCNC1=O [Compound C275]	20 nM
CC(C)C[C@H](NC(=O)OC1CCN(C(=O)OC(C)(C)C)CC1)C(=O)N[C@@H](C[C@@H]1CCNC1=O)C(O)S(=O)(=O)O (stereo partly drawn) [Compound C51, (2S)-2-((S)-2-((((1-(tert-butoxycarbonyl)piperidin-4-yl)oxy)carbonyl)amino)-4-methylpentanamido)-1-hydroxy-3-((S)-2-oxopyrrolidin-3-yl) propane-1-sulfonate]	115 nM
CC(C)(c1cccc(Cl)c1)C(OC(=O)N[C@@H](CC1CCCCC1)C(=O)N[C@H](C=O)C[C@@H]1CCNC1=O)c1ccc2ccccc2c1 (some centres unmarked) [Compound C127]	3.6 nM
O=CC(CC1CC2(CCC2)NC1=O)NC(=O)[C@H](CC1CCCCC1)NC(=O)OCc1cccc(Cl)c1 (stereo partly drawn) [Compound C229, 3-Chlorobenzyl ((2S)-3-cyclohexyl-1-oxo-1-((1-oxo-3-(6-oxo-5-azaspiro[3.4]octan-7-yl)propan-2-yl)amino)propan-2-yl)carbamate]	0.8 nM
CS(=O)(=O)N1CCC(OC(=O)N[C@@H](CC2CCCCC2)C(=O)N[C@H](C=O)CCC(=O)N2CCOc3ccccc3C2)CC1 [Compound C30, 1-(Methylsulfonyl) piperidin-4-yl((S)-3-cyclohexyl-1-(((S)-5-(2,3-dihydrobenzo[f][1,4]oxazepin-4(5H)-yl)-1,5-dioxopentan-2-yl)amino)-1-oxopropan-2-yl)carbamate]	42300 nM
CC(C)C[C@H](NC(=O)OC1(Cc2cccc(Cl)c2)CC1)C(=O)N[C@@H](C[C@@H]1CCNC1=O)C(=O)C(N)=O [Compound C88, 1-(3-Chlorobenzyl) cyclopropyl ((S)-1-(((S)-4-amino-3,4-dioxo-1-((S)-2-oxopyrrolidin-3-yl)butan-2-yl)amino)-4-methyl-1-oxopentan-2-yl)carbamate]	1300 nM
NC(=O)C(=O)[C@H](C[C@@H]1CCNC1=O)NC(=O)[C@H](Cc1ccccc1)NC(=O)OC(CCc1ccccc1)c1ccccc1 (some centres unmarked) [Compound C255]	70 nM
CC(C)(c1cccc(Cl)c1)C(OC(=O)N[C@@H](CC1CCCCC1)C(=O)N[C@@H](C[C@@H]1CCNC1=O)C(=O)C(N)=O)c1ccc(F)cc1 (stereo partly drawn) [Compound C135, 2-(3-Chlorophenyl)-1-(4-fluorophenyl)-2-methylpropyl ((S)-1-(((S)-4-amino-3,4-dioxo-1-((S)-2-oxopyrrolidin-3-yl)butan-2-yl)amino)-3-cyclohexyl-1-oxopropan-2-yl) carbamate]	1890 nM
CC(C)C[C@H](NC(=O)OC(c1ccccc1)C(C)(C)c1cccc(Cl)c1)C(=O)N[C@@H](C[C@@H]1CCNC1=O)C(=O)CCl (stereo partly drawn) [Compound C209, 2-(3-Chlorophenyl)-2-methyl-1-phenylpropyl ((S)-1-(((S)-4-chloro-3-oxo-1-((S)-2-oxopyrrolidin-3-yl)butan-2-yl)amino)-4-methyl-1-oxopentan-2-yl)carbamate]	1870 nM
CC(C)(c1cccc(Cl)c1)C(OC(=O)N[C@@H](CC1CCCCC1)C(=O)N[C@@H](C[C@@H]1CCNC1=O)C(=O)C(=O)NC1CC1)c1ccc(Cl)cc1 (stereo partly drawn) [Compound C145, 2-(3-Chlorophenyl)-1-(4-chlorophenyl)-2-methylpropyl ((S)-3-cyclohexyl-1-(((S)-4-(cyclopropylamino)-3,4-dioxo-1-((S)-2-oxopyrrolidin-3-yl)butan-2-yl)amino)-1-oxopropan-2-yl) carbamate]	4300 nM
CC(=O)N1CCC2(CC1)CC(CC(C=O)NC(=O)[C@H](CC(C)C)NC(=O)OCc1cccc(Cl)c1)C(=O)N2 (stereo partly drawn) [Compound C54, 3-Chlorobenzyl ((2S)-1-((1-(8-acetyl-2-oxo-1,8-diazaspiro[4.5]decan-3-yl)-3-oxopropan-2-yl)amino)-4-methyl-1-oxopentan-2-yl)carbamate]	100 nM
CC(C)(c1cccc(Cl)c1)[C@@H](OC(=O)N[C@@H](CC1CCCCC1)C(=O)N[C@@H](C[C@@H]1CCNC1=O)C(=O)C(N)=O)c1cccc(F)c1 [Compound C182]	2470 nM
O=C(N[C@@H](CC1CCCCC1)C(=O)NC(CC1CC2(CCOCC2)NC1=O)C(=O)C(=O)NC1CC1)OCc1cccc(Cl)c1 (stereo partly drawn) [Compound C176, 3-Chlorobenzyl ((2S)-3-cyclohexyl-1-((4-(cyclopropylamino)-3,4-dioxo-1-(2-oxo-8-oxa-1-azaspiro[4.5]decan-3-yl)butan-2-yl)amino)-1-oxopropan-2-yl)carbamate]	1570 nM
CC(C)C[C@H](NC(=O)OC(CCc1ccccc1)c1ccccc1)C(=O)N[C@H](C=O)C[C@@H]1CCNC1=O (some centres unmarked) [Compound C259]	50 nM
CC(C)C(C)(C)C(NC(=O)OCc1ccccc1)C(=O)N[C@H](C=O)C[C@@H]1CCNC1=O (stereo partly drawn) [Compound C118, Benzyl (3,3,4-trimethyl-1-oxo-1-(((S)-1-oxo-3-((S)-2-oxopyrrolidin-3-yl)propan-2-yl)amino)pentan-2-yl)carbamate]	868 nM
CC1(C)CC(CC(NC(=O)[C@H](CC2CCCCC2)NC(=O)OC(c2cccc(F)c2)C(C)(C)c2cccc(Cl)c2)C(=O)C(N)=O)C(=O)N1 (stereo partly drawn) [Compound C220, 2-(3-Chlorophenyl)-1-(3-fluorophenyl)-2-methylpropyl ((2S)-1-((4-amino-1-(5,5-dimethyl-2-oxopyrrolidin-3-yl)-3,4-dioxobutan-2-yl)amino)-3-cyclohexyl-1-oxopropan-2-yl)carbamate]	1830 nM
CC(C)(c1cccc(Cl)c1)C(OC(=O)N[C@@H](CC1CCCCC1)C(=O)N[C@@H](C[C@@H]1CCNC1=O)C(=O)C(N)=O)c1cccc(F)c1 (stereo partly drawn) [Compound C120, 2-(3-Chlorophenyl)-1-(3-fluorophenyl)-2-methylpropyl ((S)-1-(((S)-4-amino-3,4-dioxo-1-((S)-2-oxopyrrolidin-3-yl)butan-2-yl)amino)-3-cyclohexyl-1-oxopropan-2-yl) carbamate]	1060 nM
